This note sets out measurements from article PMC4840272 (Neoplasia (New York, N.Y.), 2016).

One data set deals with NTUB1. The experiment in a line: cytotoxicity in multiple drug-resistant and cisplatin-resistant cells. The class given is cell-based.
The subject of the next data set is CL100 cells. As to the kind of experiment: cells. The class given is cell-based, human.
A further data set concerns H1650 cells. As to the kind of experiment: cells. The format is cell-based, human.
A further data set concerns H460 cells. As to the kind of experiment: cells. The class given is cell-based, human.
In another data set the test system is CL97 cells. As to the kind of experiment: cells. The class given is cell-based, human.
Another data set has as its system NTUB1/P. The experiment in a line: cytotoxicity in multiple drug-resistant and cisplatin-resistant cells. The class given is cell-based.
The test system of a further data set is H460 xenograft. As to the kind of experiment: H460 xenograft in nude mice. The format is in vivo. The note with it: BO-1978 40 mg/kg QDx5, cisplatin 6 mg/kg every 4 days x3.
The subject of another data set is MES-SA/dx5. The experiment in a line: cytotoxicity in multiple drug-resistant and cisplatin-resistant cells. Particulars: for resistance factor: MES-SA/dx5 vs MES-SA. The format is cell-based.
Another data set has as its system CL1-5 cells. As to the kind of experiment: alamarBlue in vitro cytotoxicity assay. The class given is cell-based, human.
The subject of a further data set is PC9/gef B4 cells. The experiment in a line: cells. The note with it: for resistance factor of PC9/gef B4 to PC9 cells: IC50 ratio, number in brackets. The class given is cell-based, human.
For a further data set, the system named is H1299 cells. As to the kind of experiment: cells. The class given is cell-based, human.
In a further data set the test system is CL141T cells. As to the kind of experiment: cells. The class given is cell-based, human.
The next data set concerns PC9 cells. As to the kind of experiment: cells. The format is cell-based, human.
For a further data set, the system named is MES-SA. The experiment in a line: cytotoxicity in multiple drug-resistant and cisplatin-resistant cells. The format is cell-based.
The next data set deals with H1975 cells. The experiment in a line: cells. The format is cell-based, human.
Another data set concerns A549 cells. As to the kind of experiment: cells. The format is cell-based, human.
A further data set concerns H1650 xenograft. As to the kind of experiment: H1650 xenograft in nude mice. The format is in vivo. The note with it: i.v., BO-1978 40 mg/kg, gefitinib 10 mg/kg, daily for 5 consecutive days.
Another data set deals with PC9 xenograft. The experiment in a line: PC9 xenograft in nude mice. The format is in vivo. Particulars: i.v., BO-1978 40 mg/kg, gefitinib 10 mg/kg, daily for 5 consecutive days.
For the next data set, the system named is H1650-Luc cells. The experiment in a line: orthotopic lung tumor model, IVIS. The class given is in vivo, nude mice. The note with it: BO-1978 40 mg/kg, gefitinib 10 mg/kg, daily for 5 consecutive days.
The subject of a further data set is PC9/gef B4 xenograft. The experiment in a line: PC9/gef B4 xenograft in nude mice. The class given is in vivo. Particulars: i.v., BO-1978 40 mg/kg, gefitinib 10 mg/kg, daily for 5 consecutive days.
The test system of the next data set is H1975 xenograft. As to the kind of experiment: H1975 xenograft in nude mice. The format is in vivo. The note with it: i.v., BO-1978 40 mg/kg, gefitinib 10 mg/kg, daily for 5 consecutive days.
The next data set has as its system CCRF-CEM. The experiment in a line: cytotoxicity in multiple drug-resistant and cisplatin-resistant cells. The format is cell-based. Particulars: Homo sapiens.
The next data set relates to KB/vin10. The description is as above. The format is cell-based.
The subject of the next data set is CCRF/VBL. Described as above. The class given is cell-based.
For a further data set, the system named is KB. The description is as above. The note with it: Homo sapiens. The class given is cell-based.

Molecules are shown by their SMILES. Read-outs that look alike come from different tables or passages of the source.

`N.N.[Cl][Pt][Cl]` [Cisplatin]: the IC50 was found to be 2.97 ± 1.43 µM in the data set with NTUB1; 6.21 ± 3.64 µM in the data set on CL100 cells (CL100, 72 hours, alamarBlue); 36.5 ± 8.14 µM in the data set on H1650 cells (H1650, 72 hours, alamarBlue); 9.94 ± 0.47 µM in the data set on H460 cells (H460, 72 hours, alamarBlue); 14.7 ± 0.34 µM in the data set with CL97 cells (CL97, 72 hours, alamarBlue); 62.1 ± 15.3 µM in the data set with NTUB1/P (NTUB1/P). The IC50 stood at 2.27 ± 0.73 µM in the data set with MES-SA/dx5 (MES-SA/dx5); 2.82 ± 0.28 µM with CL1-5 cells (CL1-5, 72 hours, alamarBlue); 34.3 ± 1.62 µM in the data set with PC9/gef B4 cells (PC9/gef B4, 72 hours, alamarBlue); 16.5 ± 0.9 µM in the data set with H1299 cells (H1299, 72 hours, alamarBlue); 2.8 ± 0.36 µM in the data set with CL141T cells (72 hours, alamarBlue); 16.4 ± 3.29 µM in the data set with PC9 cells (PC9, 72 hours, alamarBlue). Also, the IC50 turned out to be 1.82 ± 0.66 µM in the data set with MES-SA; 16.1 ± 4.03 µM with H1975 cells (H1975, 72 hours, alamarBlue); 31.1 ± 3.03 µM with A549 cells (A549, 72 hours, alamarBlue). Besides, the resistance factor is recorded as 20.9 x in the data set with NTUB1/P (NTUB1/P vs NTUB1) and 1.25 x with MES-SA/dx5. In the data set on H460 xenograft (H460 xenograft mice), the body weight loss entry was “approximately 12%”. In the data set with H460 xenograft (i.v.), the “H460 xenograft tumor size suppressed/reduced to” value is 52%. Further, the “resistance factor of PC9/gef B4 to PC9 cells” value in the data set on PC9/gef B4 cells is 2.10.

With `COc1cccc2c1C(=O)c1c(O)c3c(c(O)c1C2=O)C[C@@](O)(C(=O)CO)C[C@@H]3O[C@H]1C[C@H](N)[C@H](O)[C@H](C)O1` [Doxorubicin], the IC50 was 2.3 ± 0.98 µM in the data set with MES-SA/dx5 (Homo sapiens, MES-SA/Dx5) and 0.038 ± 0.003 µM with MES-SA (Homo sapiens). Also, the resistance factor with MES-SA/dx5 is 60.52 x.

Turning to `COc1cc([C@@H]2c3cc4c(cc3[C@@H](O[C@@H]3O[C@@H]5CO[C@@H](C)O[C@H]5[C@H](O)[C@H]3O)[C@H]3COC(=O)[C@H]23)OCO4)cc(OC)c1O` [Etoposide], the IC50 in the data set on CL100 cells (Homo sapiens, 72 h) was 4.3 ± 3.87 µM; in the data set with H1650 cells (Homo sapiens, NCI-H1650, 72 h), 32.5 ± 17.6 µM; in the data set with H460 cells (Homo sapiens, NCI-H460, 72 h) it was 7.31 ± 2.56 µM; with CL97 cells (Homo sapiens, CL97, 72 h) it was 24.4 ± 17.4 µM; in the data set with CL1-5 cells (Homo sapiens, CL1-5, 72 h) it was 12.6 ± 3.93 µM; in the data set on PC9/gef B4 cells (Homo sapiens, 72 h), 36.7 ± 20.5 µM. The IC50 in the data set on H1299 cells (Homo sapiens, NCI-H1299, 72 h) worked out at 15.6 ± 7.45 µM; in the data set on CL141T cells (Homo sapiens, 72 h), 23.3 ± 3.34 µM; in the data set on PC9 cells (Homo sapiens, PC-9, 72 h), 19.3 ± 6.28 µM; with H1975 cells (Homo sapiens, NCI-H1975, 72 h), 14.1 ± 2.9 µM; in the data set with A549 cells (Homo sapiens, A549, 72 h), 22.4 ± 14.4 µM. In addition, the “resistance factor of PC9/gef B4 to PC9 cells” value in the data set on PC9/gef B4 cells is given as 1.90.

In the case of `COc1cc2ncnc(Nc3ccc(F)c(Cl)c3)c2cc1OCCCN1CCOCC1` [Gefitinib, reference compound], the “suppression of xenograft tumor growth” value in the data set with H1650 xenograft was roughly 51%; with PC9 xenograft it was “approximately 36%”; in the data set on PC9/gef B4 xenograft, roughly 49%; with H1975 xenograft, roughly 1%. Also, in the data set on H1650-Luc cells, the “orthotopic growth of H1650-Luc cells” value is given as “resistant to gefitinib treatment alone”.

Consider `CCc1c2c(nc3ccc(OC(=O)N4CCC(N5CCCCC5)CC4)cc13)-c1cc3c(c(=O)n1C2)COC(=O)[C@]3(O)CC` [Irinotecan], for which the IC50 with H1650 cells (Homo sapiens, NCI-H1650, 72 h) turned out to be 17.1 ± 4.2 µM; in the data set with H460 cells (Homo sapiens, NCI-H460, 72 h) it was 4.18 ± 1.29 µM; with H1299 cells (Homo sapiens, NCI-H1299, 72 h) it was 24.5 ± 1.85 µM; with PC9 cells (Homo sapiens, PC-9, 72 h) it was 11.2 ± 1.97 µM; in the data set with H1975 cells (Homo sapiens, NCI-H1975, 72 h) it was 36.8 ± 14.4 µM; with A549 cells (Homo sapiens, A549, 72 h) it was 9.29 ± 3.31 µM.

With `CC[C@]1(O)C[C@H]2CN(CCc3c([nH]c4ccccc34)[C@@](C(=O)OC)(c3cc4c(cc3OC)N(C=O)[C@H]3[C@@](O)(C(=O)OC)[C@H](OC(C)=O)[C@]5(CC)C=CCN6CC[C@]43[C@@H]65)C2)C1` [Vincristine, reference compound], the IC50 in the data set with CCRF-CEM was 0.00223 ± 0.00019 µM; in the data set on KB/vin10 (Homo sapiens, KB-VIN10) it was 0.51 ± 0.17 µM; in the data set on CCRF/VBL, 2.13 ± 0.249 µM; with KB, 0.00216 ± 0.00025 µM. Further, the resistance factor in the data set on KB/vin10 (KB/vin10 vs KB) came to 236.1 x; in the data set with CCRF/VBL (CCRF/VBL vs CCRF-CEM) it was 954.3 x.

By IC50 is commonly meant the point on the concentration scale where inhibition reaches its midpoint.
